“Also recorded” adds a separate entry of the source.
Tests used:
[1] = test system: Male ICR mice; assay: Catalepsy, ring-test (ring immobility); assay type: in vivo; details: SR 141716A 10 mg/kg i.p. 5 min before 60 actuations of Δ^9-THC MDI
Method: (§1) Male ICR mice, weighing approximately 30 g, obtained from Harlan Laboratories (Indianapolis, Ind.) were provided a light cycle of approximately 6 a.m. to 6 p.m., and the temperature remained approximately 23° C. The mice were placed in the lab and allowed to accommodate to the surroundings the evening prior to testing. Animals were allowed food (Harlan Teklab, Madison, Wis.) and water ad libitum.
(§2) The exposure chamber was a modified, inverted, 1-liter separation funnel, housed under a fume hood, which allowed four mice to be simultaneously exposed to the aerosol. […]
(§3) A ring-test procedure was used to assess catalepsy. The percent of time during a five minute observation period that mice remained motionless, except for movements related to respiration, while stationed on a 5.7 cm diameter ring stand 23 cm above the laboratory bench, was assessed. Body temperature was assessed by inserting a thermometer probe (Traceable Digital, Control Co., Friendswood, Tex.) 2.5 cm into the rectum. Subjects were assessed for baseline tail-flick latency and rectal temperature prior to drug or vehicle administration. […] Locomotor activity, tail-flick latency, catalepsy, and hypothermia were assessed 5, 20, 40, and 60 minutes, respectively, after aerosol exposure. […]

[2] = test system: mice; details: cited from earlier work
[3] = test system: Male ICR mice; assay: Locomotor activity (hypomotility), Digiscan Animal Activity Monitor; assay type: in vivo; details: SR 141716A 10 mg/kg i.p. 5 min before 60 actuations of Δ^9-THC MDI
Method: Mice were placed in separate clear chambers (16.5 cm×25.5 cm×11.5 cm high) and assessed for hypomotility using a Digiscan Animal Activity Monitor (Omnitech Electronics Inc., Columbus, Ohio) in which the total number of photocell-light beam interruptions was counted. Antinociception was assessed in the tail-flick test (D'Amour, F. E., Smith, D. L., A method for determining loss of pain sensation, J Pharm Exp Ther, 72:74-79 (1941)) with heat intensity adjusted to give baseline latencies ranging from 2.0-4.0 seconds. […] Percent maximum possible effect (%MPE) was determined according to the following formula:
A ring-test procedure was used to assess catalepsy. […] Body temperature was assessed by inserting a thermometer probe (Traceable Digital, Control Co., Friendswood, Tex.) 2.5 cm into the rectum. […]

[4] = test system: Male ICR mice; assay: Hypothermia, rectal temperature; assay type: in vivo; details: SR 141716A 10 mg/kg i.p. 5 min before 60 actuations of Δ^9-THC MDI
Method: as §1, §2, §3

[5] = test system: Male ICR mice; assay: Antinociception, tail-flick test; assay type: in vivo
Method: as §1
The exposure chamber was a modified, inverted, 1-liter separation funnel, housed under a fume hood, which allowed four mice to be simultaneously exposed to the aerosol. Air was drawn through the chamber at a rate of approximately 60 ml/minute and filtered through glass wool (Corning Inc., Corning, N.Y.) and charcoal traps (SKC Inc., Eighty Four, Pa.) upon exiting the exposure chamber. Each actuation of Δ^9-THC or vehicle was delivered once per 5 s and the entire exposure period was 10 min. Mice were exposed to 20, 40 or 60 actuations of aerosolized Δ^9-THC or 60 actuations of vehicle.
Mice were placed in separate clear chambers (16.5 cm×25.5 cm×11.5 cm high) and assessed for hypomotility using a Digiscan Animal Activity Monitor (Omnitech Electronics Inc., Columbus, Ohio) in which the total number of photocell-light beam interruptions was counted. Antinociception was assessed in the tail-flick test (D'Amour, F. E., Smith, D. L., A method for determining loss of pain sensation, J Pharm Exp Ther, 72:74-79 (1941)) with heat intensity adjusted to give baseline latencies ranging from 2.0-4.0 seconds. A cut-off time of 10 seconds was used to limit tissue damage. Percent maximum possible effect (%MPE) was determined according to the following formula:
%MPE=[(test latency-baseline latency)/(cut-off-baseline latency)]*100
A ring-test procedure was used to assess catalepsy. The percent of time during a five minute observation period that mice remained motionless, except for movements related to respiration, while stationed on a 5.7 cm diameter ring stand 23 cm above the laboratory bench, was assessed. Body temperature was assessed by inserting a thermometer probe (Traceable Digital, Control Co., Friendswood, Tex.) 2.5 cm into the rectum. Subjects were assessed for baseline tail-flick latency and rectal temperature prior to drug or vehicle administration. […] Locomotor activity, tail-flick latency, catalepsy, and hypothermia were assessed 5, 20, 40, and 60 minutes, respectively, after aerosol exposure. An additional group of animals was given an i.v. injection of Δ^9-THC (0.3, 1, 3, or 10 mg/kg) or vehicle into a lateral tail vein and assessed in the tail-flick test 20 minutes later. All injections were given in a volume of 0.1 ml per 10 g animal weight.
The statistical analysis of the data was as follows. Data are represented by means±standard error (s.e.). Statistical analysis of the data was performed using Student t-tests (for the physiochemical comparisons of the aerosol), or ANOVA (for pharmacological studies), with significance set at p<0.05. Post hoc tests for significant ANOVAs included either Dunnett's test or Tukey/Kramer post-hoc analysis. […] A sample size of 6-8 mice was used in each group.

[6] = test system: Spasticity and pain due to spinal cord injury; details: oral THC (5 mg) or codeine (50 mg); 1 patient; cited from earlier work
[7] = test system: Nausea and emesis due to Cancer chemotherapy; details: oral 15 mg THC, 10 mg prochloperzine or placebo; 116 patients; cited from earlier work

Cc1c(C(=O)NN2CCCCC2)nn(-c2ccc(Cl)cc2Cl)c1-c1ccc(Cl)cc1 [SR 141716A]
antagonism of Δ^9-THC-induced catalepsy [1]: significantly blocked; also recorded: significantly antagonized | ED50 in antagonizing antinociceptive effects ([2]; exposure to marijuana smoke (Lichtman et al., 2001)): 0.6 mg/kg | antagonism of effects of marijuana smoke ([2]; mice exposed to marijuana smoke (Lichtman et al., 2001)): only effectively antagonized the antinociceptive response | antagonism of Δ^9-THC-induced hypomotility [3]: significantly blocked; also recorded: significantly antagonized | antagonism of Δ^9-THC-induced hypothermia [4]: significantly blocked; also recorded: not completely antagonized; also recorded: significantly antagonized | antagonism of Δ^9-THC-induced antinociception ([5]; SR 141716A 10 mg/kg i.p. 5 min before 60 actuations of Δ^9-THC MDI): significantly blocked; also recorded: significantly antagonized | AD50 (95% C.L.) in antagonizing the antinociceptive effects of inhaled Δ^9-THC ([5]; i.p. pretreatment, exposure to Δ^9-THC): 0.8 mg/kg

COc1ccc2c3c1O[C@H]1[C@@H](O)C=C[C@H]4[C@@H](C2)N(C)CC[C@@]341 [codeine]
effect on spasticity [6]: codeine did not

CN1CCN(CCCN2c3ccccc3Sc3ccc(Cl)cc32)CC1 [prochlorperazine]
antiemetic effect compared with placebo [7]: each greater than placebo; | antiemetic effects, THC vs prochlorperazine [7]: Equal antiemetic effects
